Measured values published in ChEMBL document CHEMBL4138123, “Design, synthesis and biological evaluation of novel pyrazolochalcones as potential modulators of PI3K/Akt/mTOR pathway and inducers of apoptosis in breast cancer cells” (Eur J Med Chem, 2017).

Tests used:
Type in all cases: functional
NCI-H226 [1] = experiment: Cytotoxicity against human NCI-H226 cells assessed as cell growth at 10 uM after 48 hrs by sulforhodamine B assay relative to control; settings: NCI-H226, 48 h, read-out: Activity
KM12 = experiment: Cytotoxicity against human KM12 cells assessed as growth inhibition after 48 hrs by sulforhodamine B assay; settings: KM12, 48 h
HOP-62 = experiment: Cytotoxicity against human HOP62 cells assessed as growth inhibition after 48 hrs by sulforhodamine B assay; settings: HOP-62, 48 h
IGROV-1 [2] = experiment: Cytotoxicity against human IGROV1 cells assessed as cell growth at 1 uM after 48 hrs by sulforhodamine B assay relative to control; settings: IGROV-1, 48 h, read-out: Activity
COLO 205 = experiment: Cytotoxicity against human COLO205 cells assessed as cell growth at 0.01 uM after 48 hrs by sulforhodamine B assay relative to control; settings: COLO 205, 48 h, read-out: Activity
OVCAR-3 [3] = experiment: Cytotoxicity against human OVCAR3 cells assessed as cell growth at 0.1 uM after 48 hrs by sulforhodamine B assay relative to control; settings: OVCAR-3, 48 h, read-out: Activity
RXF 393 = experiment: Cytotoxicity against human RXF393 cells assessed as cell growth at 10 uM after 48 hrs by sulforhodamine B assay relative to control; settings: RXF 393, 48 h, read-out: Activity
SF-539 = experiment: Cytotoxicity against human SF539 cells assessed as cell growth at 0.1 uM after 48 hrs by sulforhodamine B assay relative to control; settings: SF-539, 48 h, read-out: Activity
OVCAR-8 = experiment: Cytotoxicity against human OVCAR8 cells assessed as cell growth at 0.1 uM after 48 hrs by sulforhodamine B assay relative to control; settings: OVCAR-8, 48 h, read-out: Activity
OVCAR-3 [4] = experiment: Cytotoxicity against human OVCAR3 cells assessed as cell growth at 100 uM after 48 hrs by sulforhodamine B assay relative to control; settings: OVCAR-3, 48 h, read-out: Activity
NCI/ADR-RES = experiment: Cytotoxicity against human NCI/ADR-RES cells assessed as cell growth at 1 uM after 48 hrs by sulforhodamine B assay relative to control; settings: read-out: Activity
K562 [5] = experiment: Cytotoxicity against human K562 cells assessed as cell growth at 100 uM after 48 hrs by sulforhodamine B assay relative to control; settings: K562, 48 h, read-out: Activity
NCI-H226 [6] = experiment: Cytotoxicity against human NCI-H226 cells assessed as cell growth at 0.01 uM after 48 hrs by sulforhodamine B assay relative to control; settings: NCI-H226, 48 h, read-out: Activity
Hs-578T = experiment: Cytotoxicity against human Hs 578T cells assessed as growth inhibition after 48 hrs by sulforhodamine B assay
K562 [7] = experiment: Cytotoxicity against human K562 cells assessed as cell growth at 1 uM after 48 hrs by sulforhodamine B assay relative to control; settings: K562, 48 h, read-out: Activity
BT-549 = experiment: Cytotoxicity against human BT549 cells assessed as cell growth at 0.1 uM after 48 hrs by sulforhodamine B assay relative to control; settings: BT-549, 48 h, read-out: Activity
CCRF-CEM [8] = experiment: Cytotoxicity against human CCRF-CEM cells assessed as cell growth at 10 uM after 48 hrs by sulforhodamine B assay relative to control; settings: read-out: Activity
UO-31 [9] = experiment: Cytotoxicity against human UO31 cells assessed as cell growth at 10 uM after 48 hrs by sulforhodamine B assay relative to control; settings: UO-31, 48 h, read-out: Activity
M14 [10] = experiment: Cytotoxicity against human M14 cells assessed as cell growth at 10 uM after 48 hrs by sulforhodamine B assay relative to control; settings: M14, 48 h, read-out: Activity
NCI-H460 [11] = experiment: Cytotoxicity against human NCI-H460 cells assessed as cell growth at 10 uM after 48 hrs by sulforhodamine B assay relative to control; settings: NCI-H460, 48 h, read-out: Activity
CCRF-CEM [12] = experiment: Cytotoxicity against human CCRF-CEM cells assessed as cell growth at 1 uM after 48 hrs by sulforhodamine B assay relative to control; settings: read-out: Activity
HCC 2998 = experiment: Cytotoxicity against human HCC2998 cells assessed as growth inhibition after 48 hrs by sulforhodamine B assay; settings: HCC 2998, 48 h
HL-60(TB) = experiment: Cytotoxicity against human HL-60(TB) cells assessed as cell growth at 0.01 uM after 48 hrs by sulforhodamine B assay relative to control; settings: HL-60, 48 h, read-out: Activity
MCF7 = experiment: Cytotoxicity against human MCF7 cells assessed as cell growth at 0.01 uM after 48 hrs by sulforhodamine B assay relative to control; settings: MCF7, 48 h, read-out: Activity
NCI-H460 [13] = experiment: Cytotoxicity against human NCI-H460 cells assessed as cell growth at 0.1 uM after 48 hrs by sulforhodamine B assay relative to control; settings: NCI-H460, 48 h, read-out: Activity
K562 [14] = experiment: Cytotoxicity against human K562 cells assessed as cell growth at 10 uM after 48 hrs by sulforhodamine B assay relative to control; settings: K562, 48 h, read-out: Activity
HT-29 = experiment: Cytotoxicity against human HT-29 cells assessed as cell growth at 100 uM after 48 hrs by sulforhodamine B assay relative to control; settings: HT-29, 48 h, read-out: Activity
SK-MEL-5 = experiment: Cytotoxicity against human SK-MEL-5 cells assessed as cell growth at 0.1 uM after 48 hrs by sulforhodamine B assay relative to control; settings: SK-MEL-5, 48 h, read-out: Activity
786-0 = experiment: Cytotoxicity against human 786-0 cells assessed as cell growth at 1 uM after 48 hrs by sulforhodamine B assay relative to control; settings: 786-0, 48 h, read-out: Activity
OVCAR-3 [15] = experiment: Cytotoxicity against human OVCAR3 cells assessed as cell growth at 0.01 uM after 48 hrs by sulforhodamine B assay relative to control; settings: OVCAR-3, 48 h, read-out: Activity
DU-145 = experiment: Cytotoxicity against human DU145 cells assessed as cell growth at 0.1 uM after 48 hrs by sulforhodamine B assay relative to control; settings: DU-145, 48 h, read-out: Activity
UO-31 [16] = experiment: Cytotoxicity against human UO31 cells assessed as cell growth at 100 uM after 48 hrs by sulforhodamine B assay relative to control; settings: UO-31, 48 h, read-out: Activity
SR = experiment: Cytotoxicity against human SR cells assessed as growth inhibition after 48 hrs by sulforhodamine B assay; settings: for CC50: read-out: LC50 (the source's name)
IGROV-1 [17] = experiment: Cytotoxicity against human IGROV1 cells assessed as cell growth at 100 uM after 48 hrs by sulforhodamine B assay relative to control; settings: IGROV-1, 48 h, read-out: Activity
Malme-3M [18] = experiment: Cytotoxicity against human MALME-3M cells assessed as cell growth at 100 uM after 48 hrs by sulforhodamine B assay relative to control; settings: read-out: Activity
M14 [19] = experiment: Cytotoxicity against human M14 cells assessed as cell growth at 1 uM after 48 hrs by sulforhodamine B assay relative to control; settings: M14, 48 h, read-out: Activity
Malme-3M [20] = experiment: Cytotoxicity against human MALME-3M cells assessed as cell growth at 1 uM after 48 hrs by sulforhodamine B assay relative to control; settings: read-out: Activity

## COc1cc(-c2cc(/C=C/C(=O)c3ccc(N)cc3)[nH]n2)cc(OC)c1OC
NCI-H226 [1]
  growth at 10 µM: -73%
KM12
  GI50: 1.41 µM
  LC50: 7.27 µM
  TGI: 2.88 µM
HOP-62
  GI50: 1.77 µM
  LC50: 8.7 µM
  TGI: 3.92 µM
IGROV-1 [2]
  growth at 1 µM: 100%
COLO 205
  growth at 0.01 µM: 93%
OVCAR-3 [3]
  growth at 0.1 µM: 110%
RXF 393
  growth at 10 µM: -64%
SF-539
  growth at 0.1 µM: 99%
OVCAR-8
  growth at 0.1 µM: 98%
OVCAR-3 [4]
  growth at 100 µM: -93%
NCI/ADR-RES
  growth at 1 µM: 98%
K562 [5]
  growth at 100 µM: -3%
NCI-H226 [6]
  growth at 0.01 µM: 92%
Hs-578T
  GI50: 4.33 µM
  LC50: > 100 µM
  TGI: > 100 µM
K562 [7]
  growth at 1 µM: 43%
BT-549
  growth at 0.1 µM: 93%
CCRF-CEM [8]
  growth at 10 µM: -22%
UO-31 [9]
  growth at 10 µM: -84%
M14 [10]
  growth at 10 µM: -64%
NCI-H460 [11]
  growth at 10 µM: -32%
CCRF-CEM [12]
  growth at 1 µM: 36%
HCC 2998
  GI50: 2.01 µM
  LC50: 6.53 µM
  TGI: 3.63 µM
HL-60(TB)
  growth at 0.01 µM: 99%
MCF7
  growth at 0.01 µM: 89%
NCI-H460 [13]
  growth at 0.1 µM: 102%
K562 [14]
  growth at 10 µM: 2%
HT-29
  growth at 100 µM: -49%
SK-MEL-5
  growth at 0.1 µM: 95%
786-0
  growth at 1 µM: 81%
OVCAR-3 [15]
  growth at 0.01 µM: 101%
DU-145
  growth at 0.1 µM: 104%
UO-31 [16]
  growth at 100 µM: -93%
SR
  GI50: 0.32 µM
  TGI: 2.75 µM
  CC50: > 100 µM
IGROV-1 [17]
  growth at 100 µM: -49%
Malme-3M [18]
  growth at 100 µM: -76%
M14 [19]
  growth at 1 µM: 90%
Malme-3M [20]
  growth at 1 µM: 93%

## COc1ccc(-c2cc(/C=C/C(=O)c3ccc(N)cc3)[nH]n2)cc1
NCI-H226 [1]
  growth at 10 µM: -29%
KM12
  GI50: 1.54 µM
  LC50: 7.61 µM
  TGI: 3.42 µM
HOP-62
  GI50: 2.8 µM
  LC50: 61.2 µM
  TGI: 7.49 µM
IGROV-1 [2]
  growth at 1 µM: 89%
COLO 205
  growth at 0.01 µM: 97%
OVCAR-3 [3]
  growth at 0.1 µM: 96%
RXF 393
  growth at 10 µM: -47%
SF-539
  growth at 0.1 µM: 97%
OVCAR-8
  growth at 0.1 µM: 100%
OVCAR-3 [4]
  growth at 100 µM: -85%
NCI/ADR-RES
  growth at 1 µM: 85%
K562 [5]
  growth at 100 µM: -60%
NCI-H226 [6]
  growth at 0.01 µM: 102%
Hs-578T
  GI50: 4.04 µM
  LC50: > 100 µM
  TGI: 24.4 µM
K562 [7]
  growth at 1 µM: 58%
BT-549
  growth at 0.1 µM: 96%
CCRF-CEM [8]
  growth at 10 µM: -27%
UO-31 [9]
  growth at 10 µM: -88%
M14 [10]
  growth at 10 µM: -24%
NCI-H460 [11]
  growth at 10 µM: -40%
CCRF-CEM [12]
  growth at 1 µM: 61%
HCC 2998
  GI50: 1.83 µM
  LC50: 6.17 µM
  TGI: 3.36 µM
HL-60(TB)
  growth at 0.01 µM: 96%
MCF7
  growth at 0.01 µM: 84%
NCI-H460 [13]
  growth at 0.1 µM: 102%
K562 [14]
  growth at 10 µM: 4%
HT-29
  growth at 100 µM: -56%
SK-MEL-5
  growth at 0.1 µM: 90%
786-0
  growth at 1 µM: 88%
OVCAR-3 [15]
  growth at 0.01 µM: 104%
DU-145
  growth at 0.1 µM: 100%
UO-31 [16]
  growth at 100 µM: -87%
SR
  GI50: 0.79 µM
  TGI: 6.09 µM
  CC50: 60.1 µM
IGROV-1 [17]
  growth at 100 µM: -67%
Malme-3M [18]
  growth at 100 µM: -82%
M14 [19]
  growth at 1 µM: 105%
Malme-3M [20]
  growth at 1 µM: 87%

## COc1cc(-c2cc(/C=C/C(=O)c3ccc4c(c3)OCO4)[nH]n2)cc(OC)c1OC
NCI-H226 [1]
  growth at 10 µM: 14%
HOP-62
  LC50: 23.5 µM
  TGI: 5.17 µM
IGROV-1 [2]
  growth at 1 µM: 99%
COLO 205
  growth at 0.01 µM: 105%
OVCAR-3 [3]
  growth at 0.1 µM: 101%
RXF 393
  growth at 10 µM: -95%
SF-539
  growth at 0.1 µM: 99%
OVCAR-8
  growth at 0.1 µM: 99%
OVCAR-3 [4]
  growth at 100 µM: -38%
NCI/ADR-RES
  growth at 1 µM: 96%
K562 [5]
  growth at 100 µM: -10%
NCI-H226 [6]
  growth at 0.01 µM: 97%
Hs-578T
  LC50: > 100 µM
  TGI: 78.7 µM
K562 [7]
  growth at 1 µM: 102%
BT-549
  growth at 0.1 µM: 99%
CCRF-CEM [8]
  growth at 10 µM: -19%
UO-31 [9]
  growth at 10 µM: -29%
M14 [10]
  growth at 10 µM: 15%
NCI-H460 [11]
  growth at 10 µM: -38%
CCRF-CEM [12]
  growth at 1 µM: 67%
HCC 2998
  LC50: 6.43 µM
  TGI: 3.54 µM
HL-60(TB)
  growth at 0.01 µM: 98%
MCF7
  growth at 0.01 µM: 89%
NCI-H460 [13]
  growth at 0.1 µM: 105%
K562 [14]
  growth at 10 µM: -1%
HT-29
  growth at 100 µM: -73%
SK-MEL-5
  growth at 0.1 µM: 97%
786-0
  growth at 1 µM: 96%
OVCAR-3 [15]
  growth at 0.01 µM: 104%
DU-145
  growth at 0.1 µM: 102%
UO-31 [16]
  growth at 100 µM: -79%
SR
  TGI: > 100 µM
  CC50: > 100 µM
IGROV-1 [17]
  growth at 100 µM: -8%
Malme-3M [18]
  growth at 100 µM: -56%
M14 [19]
  growth at 1 µM: 100%
Malme-3M [20]
  growth at 1 µM: 94%
